Legend:
Experiment in all cases: relative viability (nuclei count vs DMSO), 5 days (fraction); higher = more cells survive
Irinotecan + Tozasertib = compound: CCc1c2c(nc3ccc(OC(=O)N4CCC(N5CCCCC5)CC4)cc13)-c1cc3c(c(=O)n1C2)COC(=O)[C@]3(O)CC [Irinotecan] + Cc1cc(Nc2cc(N3CCN(C)CC3)nc(Sc3ccc(NC(=O)C4CC4)cc3)n2)n[nH]1 [Tozasertib] (partner 0.1 µM)
In short: (§1)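 Relative viability divides the nuclei count in treated wells by that in vehicle wells. Lung cancer cell lines were seeded in 1536-well plates, dosed by pin tool the next day, and fixed and stained after 5 days in one step with final 0.05% Triton X-100, 1% formaldehyde and 1 ug/ml Hoechst. Dosing was a single drug or a fixed anchor-drug dose plus five library-drug doses (not always all listed) in √10 steps, and values are medians of duplicate plates imaged at 4×.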

MK-8033 + Alpelisib = compound: Cn1cc(-c2cnc3ccc4ccc(CS(=O)(=O)NCc5ccccn5)cc4c(=O)c3c2)cn1 [MK-8033] + Cc1nc(NC(=O)N2CCC[C@H]2C(N)=O)sc1-c1ccnc(C(C)(C)C(F)(F)F)c1 [Alpelisib] (partner 2 µM)
In short: as §1

MK-8033 + Palbociclib = compound: Cn1cc(-c2cnc3ccc4ccc(CS(=O)(=O)NCc5ccccn5)cc4c(=O)c3c2)cn1 [MK-8033] + CC(=O)c1c(C)c2cnc(Nc3ccc(N4CCNCC4)cn3)nc2n(C2CCCC2)c1=O [Palbociclib] (partner 0.5 µM)
In short: as §1

MK-8033 + Decitabine = compound: Cn1cc(-c2cnc3ccc4ccc(CS(=O)(=O)NCc5ccccn5)cc4c(=O)c3c2)cn1 [MK-8033] + Nc1ncn([C@H]2C[C@H](O)[C@@H](CO)O2)c(=O)n1 [Decitabine] (partner 2 µM)
In short: as §1

Cell Line	relative viability (Irinotecan + Tozasertib; first compound 0.6325 µM)	relative viability (Irinotecan + Tozasertib; first compound 2 µM)	relative viability (Irinotecan + Tozasertib; first compound 6.325 µM)	relative viability (Irinotecan + Tozasertib; first compound 20 µM)	relative viability (MK-8033 + Alpelisib; first compound 0.02 µM)	relative viability (MK-8033 + Alpelisib; first compound 0.06325 µM)	relative viability (MK-8033 + Alpelisib; first compound 0.2 µM)	relative viability (MK-8033 + Alpelisib; first compound 0.6325 µM)	relative viability (MK-8033 + Alpelisib; first compound 2 µM)	relative viability (MK-8033 + Palbociclib; first compound 0.02 µM)	relative viability (MK-8033 + Palbociclib; first compound 0.06325 µM)	relative viability (MK-8033 + Palbociclib; first compound 0.2 µM)	relative viability (MK-8033 + Palbociclib; first compound 0.6325 µM)	relative viability (MK-8033 + Palbociclib; first compound 2 µM)	relative viability (MK-8033 + Decitabine; first compound 0.02 µM)	relative viability (MK-8033 + Decitabine; first compound 0.06325 µM)	relative viability (MK-8033 + Decitabine; first compound 0.2 µM)	relative viability (MK-8033 + Decitabine; first compound 0.6325 µM)	relative viability (MK-8033 + Decitabine; first compound 2 µM)
NCI-H2228	0.259	0.31	0.348	0.287	0.815	0.551	0.629	0.768	0.841	0.815	0.729	0.807	0.621	0.82	–	–	–	–	–
NCI-H596	0.798	0.878	0.632	0.624	0.436	0.511	0.462	0.46	0.477	–	–	–	–	–	0.987	0.901	0.921	1.12	1.03
NCI-H1648	0.39	0.346	0.402	0.291	–	–	–	–	–	0.243	–	0.296	0.299	0.258	0.402	–	0.543	0.515	0.468
CAL-12T	–	0.419	0.322	0.197	1.08	1.08	1.08	1.25	1.06	0.44	0.436	0.324	0.579	0.323	–	–	–	–	–
ChaGo-K-1	0.216	0.205	0.193	0.218	–	–	–	–	–	0.981	0.937	0.872	0.974	0.75	0.525	0.463	0.56	0.385	0.511
NCI-H1299	–	–	–	–	0.985	1.02	1.07	0.99	1.1	–	–	–	–	–	–	–	–	–	–
NCI-H1703	–	–	–	–	0.407	0.273	0.354	0.266	0.309	–	–	–	–	–	–	–	–	–	–
NCI-H1792	–	–	–	–	0.729	0.59	0.768	0.776	0.693	0.637	0.63	0.557	0.606	0.615	0.527	0.508	0.47	0.522	0.537
NCI-H2342	0.488	0.528	0.445	0.372	–	–	–	–	–	0.487	0.548	0.623	0.492	0.526	0.729	0.787	0.738	0.705	0.782
NCI-H522	0.506	0.502	0.526	0.486	–	–	–	–	–	0.968	0.96	1	0.968	1.18	0.552	0.617	0.73	0.612	0.725
Calu-6	–	–	–	–	1.02	1.02	0.843	0.941	0.916	–	–	–	–	–	–	–	–	–	–
